Starred links: 1 amine or outer side, 2 acyl side, 3 side chain; linkers in the order of their positions; H or OH if unused. Non-standard residues stand in square brackets, D forms with d. Residues, ends and D or L forms follow the SMILES beside them. Groups on a side chain read outwards from the residue. *: point of attachment. C20 diacid = O=C(O)CCCCCCCCCCCCCCCCCCC(=O)*; C18 diacid = O=C(O)CCCCCCCCCCCCCCCCC(=O)*; γGlu = O=C(O)[C@H](CCC(=O)[*:2])N[*:1]; αMeF = C[C@](N)(Cc1ccccc1)C(=O)O; AEEA = NCCOCCOCC(=O)O; Aib = CC(C)(N)C(=O)O
What was measured:
[1] = molecular target: human GLP-1 receptor (hGLP-1R) (Homo sapiens, UniProt P43220); assay: cAMP production (HTRF) in CHO cells expressing hGLP-1R; type: cell-based; parameters: expressed in transfected cells; conditions: for EC50: Table 7, peptides modified at position 20, cAMP in CHO hGLP-1R cells, geometric mean, read-out: hGLP-1R EC50; for % Relative Potency Ratio: Table 7, % GLP-1R activity relative to GLP-1 / % GlucR activity relative to glucagon
Sequence of human GLP-1 receptor (hGLP-1R) (P43220 24-463): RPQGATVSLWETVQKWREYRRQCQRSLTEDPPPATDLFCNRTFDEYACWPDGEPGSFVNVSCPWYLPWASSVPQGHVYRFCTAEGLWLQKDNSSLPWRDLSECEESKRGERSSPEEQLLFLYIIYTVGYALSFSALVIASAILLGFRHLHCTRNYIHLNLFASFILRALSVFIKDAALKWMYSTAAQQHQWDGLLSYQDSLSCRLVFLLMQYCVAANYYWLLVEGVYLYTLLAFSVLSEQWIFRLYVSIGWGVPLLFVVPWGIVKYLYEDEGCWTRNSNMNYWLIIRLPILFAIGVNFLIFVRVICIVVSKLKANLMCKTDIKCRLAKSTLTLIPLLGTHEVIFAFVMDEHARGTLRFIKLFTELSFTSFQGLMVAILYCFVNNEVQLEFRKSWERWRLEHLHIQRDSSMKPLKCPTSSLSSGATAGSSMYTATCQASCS
Procedure, shortened: (§1)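 Potency values represent EC50 from 4-parameter logistic curves of HTRF % Delta F signal. Receptor-expressing CHO cells (hGCGR 2×10^5 cells/mL, hGLP-1R 1×10^5 cells/mL) were exposed for 30 min at room temperature before two-step cAMP detection.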

[2] = molecular target: human glucagon receptor (hGCGR) (Homo sapiens, UniProt P47871); assay: cAMP production (HTRF) in CHO cells expressing hGCGR; type: cell-based; parameters: expressed in transfected cells; conditions: Table 7, peptides modified at position 20; cAMP in CHO hGCGR cells; geometric mean; read-out: hGluc-R EC50
Sequence of human glucagon receptor (hGCGR) (P47871 26-477): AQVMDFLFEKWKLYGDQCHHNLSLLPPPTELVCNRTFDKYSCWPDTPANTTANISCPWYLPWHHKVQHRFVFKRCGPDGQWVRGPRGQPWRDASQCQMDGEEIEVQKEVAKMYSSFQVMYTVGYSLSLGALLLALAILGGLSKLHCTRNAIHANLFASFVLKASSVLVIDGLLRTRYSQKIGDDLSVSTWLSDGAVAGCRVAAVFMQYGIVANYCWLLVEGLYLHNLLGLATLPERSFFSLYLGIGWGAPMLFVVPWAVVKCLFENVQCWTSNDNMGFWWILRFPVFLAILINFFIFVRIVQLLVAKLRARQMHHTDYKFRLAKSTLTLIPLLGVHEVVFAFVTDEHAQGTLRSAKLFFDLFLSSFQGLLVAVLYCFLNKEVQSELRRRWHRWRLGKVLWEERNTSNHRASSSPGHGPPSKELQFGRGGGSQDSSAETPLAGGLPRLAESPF
Procedure, shortened: as §1

Row | EC50 [1] [nM] | % Relative Potency Ratio [1] | EC50 [2] [nM] | SMILES
1 | 0.127 | 0.7 | 0.0426 | CC[C@H](C)[C@H](NC(=O)[C@H](Cc1c[nH]c2ccccc12)NC(=O)[C@H](CCC(=O)O)NC(=O)[C@@H](NC(=O)[C@H](Cc1ccccc1)NC(=O)[C@H](CC(=O)O)NC(=O)[C@H](CCCCNC(=O)COCCOCCNC(=O)COCCOCCNC(=O)CC[C@H](NC(=O)CCCCCCCCCCCCCCCCC(=O)O)C(=O)O)NC(=O)[C@H](C)NC(=O)[C@H](C)NC(=O)[C@H](CCC(N)=O)NC(=O)[C@H](CO)NC(=O)[C@H](CC(=O)O)NC(=O)[C@H](CC(C)C)NC(=O)[C@](C)(Cc1ccccc1)NC(=O)[C@H](CCCCN)NC(=O)[C@H](CO)NC(=O)[C@@H](NC(=O)[C@H](CC(=O)O)NC(=O)[C@H](CO)NC(=O)[C@@H](NC(=O)[C@](C)(Cc1ccccc1)NC(=O)[C@H](CO)NC(=O)CNC(=O)[C@H](Cc1c[nH]cn1)NC(=O)C(C)(C)NC(=O)[C@@H](N)Cc1c[nH]cn1)[C@@H](C)O)C(C)C)C(C)C)C(=O)N[C@@H](C)C(=O)N[C@@H](CC(N)=O)C(=O)N[C@H](C(N)=O)[C@@H](C)O [Peptide 209] (H-H[Aib]HGS[αMeF]TSDVSK[αMeF]LDSQAAK([AEEA-AEEA-γGlu-C18 diacid])DFVEWIANT-NH2)
2 | 0.156 | 1.2 | 0.0937 | CC[C@H](C)[C@H](NC(=O)[C@H](Cc1c[nH]c2ccccc12)NC(=O)[C@H](CCC(=O)O)NC(=O)[C@@H](NC(=O)[C@H](Cc1ccccc1)NC(=O)[C@H](CC(=O)O)NC(=O)[C@H](CCCCNC(=O)COCCOCCNC(=O)COCCOCCNC(=O)CC[C@H](NC(=O)CC[C@H](NC(=O)CCCCCCCCCCCCCCCCC(=O)O)C(=O)O)C(=O)O)NC(=O)[C@H](C)NC(=O)[C@H](C)NC(=O)[C@H](CCC(N)=O)NC(=O)[C@H](CO)NC(=O)[C@H](CC(=O)O)NC(=O)[C@H](CC(C)C)NC(=O)[C@](C)(Cc1ccccc1)NC(=O)[C@H](CCCCN)NC(=O)[C@H](CO)NC(=O)[C@@H](NC(=O)[C@H](CC(=O)O)NC(=O)[C@H](CO)NC(=O)[C@@H](NC(=O)[C@](C)(Cc1ccccc1)NC(=O)[C@H](CO)NC(=O)CNC(=O)[C@H](Cc1c[nH]cn1)NC(=O)C(C)(C)NC(=O)[C@@H](N)Cc1c[nH]cn1)[C@@H](C)O)C(C)C)C(C)C)C(=O)N[C@@H](C)C(=O)N[C@@H](CC(N)=O)C(=O)N[C@H](C(N)=O)[C@@H](C)O [Peptide 210] (H-H[Aib]HGS[αMeF]TSDVSK[αMeF]LDSQAAK([AEEA-AEEA-γGlu-γGlu-C18 diacid])DFVEWIANT-NH2)
3 | 0.167 | 0.7 | 0.0609 | CC[C@H](C)[C@H](NC(=O)[C@H](Cc1c[nH]c2ccccc12)NC(=O)[C@H](CCC(N)=O)NC(=O)[C@@H](NC(=O)[C@H](Cc1ccccc1)NC(=O)[C@H](CC(=O)O)NC(=O)[C@H](CCCCNC(=O)COCCOCCNC(=O)COCCOCCNC(=O)CC[C@H](NC(=O)CC[C@H](NC(=O)CCCCCCCCCCCCCCCCCCC(=O)O)C(=O)O)C(=O)O)NC(=O)[C@H](C)NC(=O)[C@H](C)NC(=O)[C@H](CCCNC(=N)N)NC(=O)[C@H](CO)NC(=O)[C@H](CC(=O)O)NC(=O)[C@H](CC(C)C)NC(=O)[C@](C)(Cc1ccccc1)NC(=O)[C@H](CCCCN)NC(=O)[C@H](CO)NC(=O)[C@@H](NC(=O)[C@H](CC(=O)O)NC(=O)[C@H](CO)NC(=O)[C@@H](NC(=O)[C@](C)(Cc1ccccc1)NC(=O)[C@H](CO)NC(=O)CNC(=O)[C@H](Cc1c[nH]cn1)NC(=O)C(C)(C)NC(=O)[C@@H](N)Cc1c[nH]cn1)[C@@H](C)O)C(C)C)C(C)C)C(=O)N[C@@H](C)C(=O)N[C@@H](CC(N)=O)C(=O)N[C@H](C(N)=O)[C@@H](C)O [Peptide 211] (H-H[Aib]HGS[αMeF]TSDVSK[αMeF]LDSRAAK([AEEA-AEEA-γGlu-γGlu-C20 diacid])DFVQWIANT-NH2)
4 | 0.532 | 0.4 | 0.0975 | CC[C@H](C)[C@H](NC(=O)[C@H](Cc1c[nH]c2ccccc12)NC(=O)[C@H](CCC(=O)O)NC(=O)[C@@H](NC(=O)[C@H](Cc1ccccc1)NC(=O)[C@H](CC(=O)O)NC(=O)[C@H](CCCCNC(=O)COCCOCCNC(=O)COCCOCCNC(=O)CC[C@H](NC(=O)CCCCCCCCCCCCCCCCCCC(=O)O)C(=O)O)NC(=O)[C@H](C)NC(=O)[C@H](C)NC(=O)[C@H](CCCNC(=N)N)NC(=O)[C@H](CO)NC(=O)[C@H](CC(=O)O)NC(=O)[C@H](CC(C)C)NC(=O)[C@](C)(Cc1ccccc1)NC(=O)[C@H](CCCCN)NC(=O)[C@H](CO)NC(=O)[C@@H](NC(=O)[C@H](CC(=O)O)NC(=O)[C@H](CO)NC(=O)[C@@H](NC(=O)[C@](C)(Cc1ccccc1)NC(=O)[C@H](CO)NC(=O)CNC(=O)[C@H](Cc1c[nH]cn1)NC(=O)C(C)(C)NC(=O)[C@@H](N)Cc1c[nH]cn1)[C@@H](C)O)C(C)C)C(C)C)C(=O)N[C@@H](C)C(=O)N[C@@H](CC(N)=O)C(=O)N[C@H](C(N)=O)[C@@H](C)O [Peptide 212] (H-H[Aib]HGS[αMeF]TSDVSK[αMeF]LDSRAAK([AEEA-AEEA-γGlu-C20 diacid])DFVEWIANT-NH2)
5 | 0.534 | 0.5 | 0.141 | CC[C@H](C)[C@H](NC(=O)[C@H](Cc1c[nH]c2ccccc12)NC(=O)[C@H](CCC(=O)O)NC(=O)[C@@H](NC(=O)[C@H](Cc1ccccc1)NC(=O)[C@H](CC(=O)O)NC(=O)[C@H](CCCCNC(=O)COCCOCCNC(=O)COCCOCCNC(=O)CC[C@H](NC(=O)CC[C@H](NC(=O)CCCCCCCCCCCCCCCCCCC(=O)O)C(=O)O)C(=O)O)NC(=O)[C@H](C)NC(=O)[C@H](C)NC(=O)[C@H](CCCNC(=N)N)NC(=O)[C@H](CO)NC(=O)[C@H](CC(=O)O)NC(=O)[C@H](CC(C)C)NC(=O)[C@](C)(Cc1ccccc1)NC(=O)[C@H](CCCCN)NC(=O)[C@H](CO)NC(=O)[C@@H](NC(=O)[C@H](CC(=O)O)NC(=O)[C@H](CO)NC(=O)[C@@H](NC(=O)[C@](C)(Cc1ccccc1)NC(=O)[C@H](CO)NC(=O)CNC(=O)[C@H](Cc1c[nH]cn1)NC(=O)C(C)(C)NC(=O)[C@@H](N)Cc1c[nH]cn1)[C@@H](C)O)C(C)C)C(C)C)C(=O)N[C@@H](C)C(=O)N[C@@H](CC(N)=O)C(=O)N[C@H](C(N)=O)[C@@H](C)O [Peptide 213] (H-H[Aib]HGS[αMeF]TSDVSK[αMeF]LDSRAAK([AEEA-AEEA-γGlu-γGlu-C20 diacid])DFVEWIANT-NH2; N-terminus assumed)
6 | 2.34 | 0.7 | 0.81 | CC[C@H](C)[C@H](NC(=O)[C@H](Cc1c[nH]c2ccccc12)NC(=O)[C@H](CCC(N)=O)NC(=O)[C@@H](NC(=O)[C@H](Cc1ccccc1)NC(=O)[C@H](CC(=O)O)NC(=O)[C@H](CCCCNC(=O)COCCOCCNC(=O)COCCOCCNC(=O)CC[C@H](NC(=O)CCCCCCCCCCCCCCCCCCC(=O)O)C(=O)O)NC(=O)[C@H](C)NC(=O)[C@H](C)NC(=O)[C@H](CCCNC(=N)N)NC(=O)[C@H](CO)NC(=O)[C@H](CC(=O)O)NC(=O)[C@H](CC(C)C)NC(=O)[C@](C)(Cc1ccccc1)NC(=O)[C@H](CCCCN)NC(=O)[C@H](CO)NC(=O)[C@@H](NC(=O)[C@H](CC(=O)O)NC(=O)[C@H](CO)NC(=O)[C@@H](NC(=O)[C@](C)(Cc1ccccc1)NC(=O)[C@H](CO)NC(=O)CNC(=O)[C@H](Cc1c[nH]cn1)NC(=O)C(C)(C)NC(=O)[C@@H](N)Cc1c[nH]cn1)[C@@H](C)O)C(C)C)C(C)C)C(=O)N[C@@H](C)C(=O)N[C@@H](CC(N)=O)C(=O)N[C@H](C(N)=O)[C@@H](C)O [Peptide 214] (H-H[Aib]HGS[αMeF]TSDVSK[αMeF]LDSRAAK([AEEA-AEEA-γGlu-C20 diacid])DFVQWIANT-NH2)
7 | 7.62 | 0.7 | 2.61 | CC[C@H](C)[C@H](NC(=O)[C@H](Cc1c[nH]c2ccccc12)NC(=O)[C@H](CCC(N)=O)NC(=O)[C@@H](NC(=O)[C@](C)(Cc1ccccc1)NC(=O)[C@H](CC(=O)O)NC(=O)[C@H](CCCCNC(=O)COCCOCCNC(=O)COCCOCCNC(=O)CC[C@H](NC(=O)CCCCCCCCCCCCCCCCCCC(=O)O)C(=O)O)NC(=O)[C@H](C)NC(=O)[C@H](C)NC(=O)[C@H](CCCNC(=N)N)NC(=O)[C@H](CO)NC(=O)[C@H](CC(=O)O)NC(=O)[C@H](CC(C)C)NC(=O)[C@](C)(Cc1ccccc1)NC(=O)[C@H](CCCCN)NC(=O)[C@H](CO)NC(=O)[C@@H](NC(=O)[C@H](CC(=O)O)NC(=O)[C@H](CO)NC(=O)[C@@H](NC(=O)[C@](C)(Cc1ccccc1)NC(=O)[C@H](CO)NC(=O)CNC(=O)[C@H](Cc1c[nH]cn1)NC(=O)C(C)(C)NC(=O)[C@@H](N)Cc1c[nH]cn1)[C@@H](C)O)C(C)C)C(C)C)C(=O)N[C@@H](C)C(=O)N[C@@H](CC(N)=O)C(=O)N[C@H](C(N)=O)[C@@H](C)O [Peptide 215] (H-H[Aib]HGS[αMeF]TSDVSK[αMeF]LDSRAAK([AEEA-AEEA-γGlu-C20 diacid])D[αMeF]VQWIANT-NH2; N-terminus assumed)
8 | 18.1 | 0.6 | 5.67 | CC[C@H](C)[C@H](NC(=O)[C@H](Cc1c[nH]c2ccccc12)NC(=O)[C@H](CCC(=O)O)NC(=O)[C@@H](NC(=O)[C@](C)(Cc1ccccc1)NC(=O)[C@H](CC(=O)O)NC(=O)[C@H](CCCCNC(=O)COCCOCCNC(=O)COCCOCCNC(=O)CC[C@H](NC(=O)CCCCCCCCCCCCCCCCCCC(=O)O)C(=O)O)NC(=O)[C@H](C)NC(=O)[C@H](C)NC(=O)[C@H](CCCNC(=N)N)NC(=O)[C@H](CO)NC(=O)[C@H](CC(=O)O)NC(=O)[C@H](CC(C)C)NC(=O)[C@](C)(Cc1ccccc1)NC(=O)[C@H](CCCCN)NC(=O)[C@H](CO)NC(=O)[C@@H](NC(=O)[C@H](CC(=O)O)NC(=O)[C@H](CO)NC(=O)[C@@H](NC(=O)[C@](C)(Cc1ccccc1)NC(=O)[C@H](CO)NC(=O)CNC(=O)[C@H](Cc1c[nH]cn1)NC(=O)C(C)(C)NC(=O)[C@@H](N)Cc1c[nH]cn1)[C@@H](C)O)C(C)C)C(C)C)C(=O)N[C@@H](C)C(=O)N[C@@H](CC(N)=O)C(=O)N[C@H](C(N)=O)[C@@H](C)O [Peptide 216] (H-H[Aib]HGS[αMeF]TSDVSK[αMeF]LDSRAAK([AEEA-AEEA-γGlu-C20 diacid])D[αMeF]VEWIANT-NH2)

Source: patent US20250353891A1 (MEDIMMUNE LIMITED, priority 2022, published 2025)
